Reference: PubChem BioAssay AID248 (DTP/NCI, 2004)
“And” between values parts separate entries of the source, which are not always exact repeats. Equal entries are not always repeated. Toxic doses and inconclusive results are not listed.

System: L1210 leukemia ip in BDF1 mice, survival T/C
Assay: NCI In Vivo Anticancer Drug Screen. Data for tumor model L1210 Leukemia (intraperitoneal) in B6D2F1 (BDF1) mice
Settings: endpoint: mean survival time, higher = longer survival
Outline: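 In this screen, tumor-bearing mice given compound are compared to those given vehicle, and their survival values are reported as a treated-to-control quotient.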

[1] = dose: 25.0 mg/kg/injection, schedule: Q04DX002 (ip), vehicle: Klucel (hydroxypropylcellulose) (HPC)
[2] = dose: 50.0 mg/kg/injection, schedule: Q04DX002 (ip), vehicle: Klucel (hydroxypropylcellulose) (HPC)
[3] = dose: 100.0 mg/kg/injection, schedule: Q04DX002 (ip), vehicle: Klucel (hydroxypropylcellulose) (HPC)
[4] = dose: 100.0 mg/kg/injection, schedule: Q01DX001 (ip), vehicle: saline
[5] = dose: 200.0 mg/kg/injection, schedule: Q01DX001 (ip), vehicle: saline
[6] = dose: 50.0 mg/kg/injection, schedule: Q01DX001 (ip), vehicle: saline
[7] = dose: 100.0 mg/kg/injection, schedule: Q04DX003 (ip), vehicle: Klucel (hydroxypropylcellulose) (HPC)
[8] = dose: 200.0 mg/kg/injection, schedule: Q04DX003 (ip), vehicle: Klucel (hydroxypropylcellulose) (HPC)
[9] = dose: 400.0 mg/kg/injection, schedule: Q04DX003 (ip), vehicle: Klucel (hydroxypropylcellulose) (HPC)
[10] = dose: 100.0 mg/kg/injection, schedule: Q01DX009 (ip), vehicle: Klucel (hydroxypropylcellulose) (HPC)
[11] = dose: 200.0 mg/kg/injection, schedule: Q01DX009 (ip), vehicle: Klucel (hydroxypropylcellulose) (HPC)
[12] = dose: 400.0 mg/kg/injection, schedule: Q01DX009 (ip), vehicle: Klucel (hydroxypropylcellulose) (HPC)
[13] = dose: 200.0 mg/kg/injection, schedule: Q04DX002 (ip), vehicle: Klucel (hydroxypropylcellulose) (HPC)
[14] = dose: 400.0 mg/kg/injection, schedule: Q04DX002 (ip), vehicle: Klucel (hydroxypropylcellulose) (HPC)

Which T/C [1] does the source give for `Cc1cccc(C(=O)OCc2ccccc2CN2CCCCC2)c1` here?
Its T/C is 105 % of control.

And the T/C [2]?
The T/C was 105 % of control.

And the T/C [3]?
Its T/C is 105 % of control.

Which results are given for `C=CCOc1cc[n+]([O-])cc1`?
T/C [4]: 100 % of control; T/C [5]: 105 % of control

With `CN(C)c1ccc(C(=C2C=CC(=[N+](C)C)C=C2)c2ccccc2Cl)cc1` as the compound, how does the T/C [6] read?
Its T/C is 92 % of control.

What about the T/C [4] of the same compound?
The T/C was 92 % of control.

Which results are given for `CCOC(=O)/C(O)=C/c1nc2ccccc2nc1C`?
T/C [7]: 105 % of control; T/C [8]: 96 % of control; T/C [9]: 99 % of control

For `COc1ccc(/C=C\C(=O)/C=C/c2ccc(OC)cc2)cc1`, which T/C [10] is on record?
Its T/C is 98 % of control.

And the T/C [7]?
The T/C was 94 % of control.

What about the T/C [11] of the same compound?
The T/C was 98 % of control.

And the T/C [8]?
The T/C was 94 % of control.

And the T/C [12]?
Its T/C is 88 % of control.

And the T/C [9]?
Its T/C is 100 % of control.

How did the T/C (dose: 1.1 mg/kg/injection, schedule: Q01DX Z (ip), vehicle: carboxymethylcellulose (CMC)) turn out when `c1ccc([As+](c2ccccc2)(c2ccccc2)c2ccccc2)cc1` was run?
The T/C was 120 % of control.

What about the T/C (dose: 1.2 mg/kg/injection, schedule: Q04DX003 (ip), vehicle: carboxymethylcellulose (CMC)) of the same compound?
Its T/C is 119 % of control.

What about the T/C (dose: 1.7 mg/kg/injection, schedule: Q01DX Z (ip), vehicle: carboxymethylcellulose (CMC)) of the same compound?
The T/C was 104 % of control and 119 % of control.

What about the T/C (dose: 2.5 mg/kg/injection, schedule: Q01DX Z (ip), vehicle: carboxymethylcellulose (CMC)) of the same compound?
Its T/C is 101 % of control.

And the T/C (dose: 2.5 mg/kg/injection, schedule: Q01DX Z (ip), vehicle: methylcellulose (MC))?
Its T/C is 119 % of control.

What about the T/C (dose: 2.5 mg/kg/injection, schedule: Q04DX003 (ip), vehicle: carboxymethylcellulose (CMC)) of the same compound?
The T/C was 117 % of control.

And the T/C (dose: 3.76 mg/kg/injection, schedule: Q01DX Z (ip), vehicle: carboxymethylcellulose (CMC))?
The T/C was 107 % of control.

And the T/C (dose: 5.0 mg/kg/injection, schedule: Q01DX001 (ip), vehicle: carboxymethylcellulose (CMC))?
Its T/C is 115 % of control.

What about the T/C (dose: 5.0 mg/kg/injection, schedule: Q01DX001 (ip), vehicle: saline) of the same compound?
Its T/C is 106 % of control.

And the T/C (dose: 5.0 mg/kg/injection, schedule: Q04DX003 (ip), vehicle: carboxymethylcellulose (CMC))?
The T/C was 116 % of control.

And the T/C (dose: 5.56 mg/kg/injection, schedule: Q01DX Z (ip), vehicle: carboxymethylcellulose (CMC))?
The T/C was 102 % of control.

And the T/C (dose: 10.0 mg/kg/injection, schedule: Q01DX001 (ip), vehicle: saline)?
Its T/C is 106 % of control.

For `CC1(C)CC(=O)C2=C(C1)Nc1ccc(Cl)cc1NC2c1ccccc1` (stereo not given), which T/C [1] is on record?
Its T/C is 92 % of control.

What about the T/C [2] of the same compound?
The T/C was 106 % of control.

What about the T/C [3] of the same compound?
The T/C was 92 % of control.

And the T/C [13]?
The T/C was 103 % of control and 113 % of control.

What about the T/C [14] of the same compound?
Its T/C is 106 % of control.

Which results are given for `CCCCCCCCCCCCCCCCCC(=O)OCC1OC(OC2(COC(=O)CCCCCCCCCCCCCCCCC)OC(COC(=O)CCCCCCCCCCCCCCCCC)C(OC(=O)CCCCCCCCCCCCCCCCC)C2OC(=O)CCCCCCCCCCCCCCCCC)C(OC(=O)CCCCCCCCCCCCCCCCC)C(OC(=O)CCCCCCCCCCCCCCCCC)C1OC(=O)CCCCCCCCCCCCCCCCC` (stereo not given)?
T/C (dose: 100.0 mg/kg/injection, schedule: Q01DX001 (ip), vehicle: other): 93 % of control; T/C (dose: 200.0 mg/kg/injection, schedule: Q01DX001 (ip), vehicle: other): 90 % of control; T/C (dose: 400.0 mg/kg/injection, schedule: Q01DX001 (ip), vehicle: other): 97 % of control

Which T/C [3] does the source give for `CC(=O)OCC(C)CCC(=O)C(C)C1C(=O)CC2CC3CC(OC(C)=O)CCC3(C)CC21C` (stereo not given) here?
Its T/C is 96 % of control.

And the T/C [13]?
Its T/C is 100 % of control.

And the T/C [14]?
Its T/C is 96 % of control.

With `Nc1ncnc(N)c1NC(=O)c1cccc(-c2ccccc2)c1` as the compound, how does the T/C (dose: 100.0 mg/kg/injection, schedule: Q01DX001 (ip), vehicle: saline with Tween-80) read?
The T/C was 97 % of control.

What about the T/C (dose: 200.0 mg/kg/injection, schedule: Q01DX001 (ip), vehicle: saline with Tween-80) of the same compound?
Its T/C is 101 % of control.

And the T/C (dose: 400.0 mg/kg/injection, schedule: Q01DX001 (ip), vehicle: saline with Tween-80)?
Its T/C is 90 % of control.

For `Cc1nc(N)nc(N)c1-c1ccc(Cl)c(Cl)c1`, which T/C (dose: 0.6 mg/kg/injection, schedule: Q01DX Z (ip), vehicle: methylcellulose (MC)) is on record?
Its T/C is 106 % of control.

What about the T/C (dose: 1.0 mg/kg/injection, schedule: Q01DX009 (ip), vehicle: saline with Tween-80) of the same compound?
The T/C was 102 % of control.

And the T/C (dose: 1.0 mg/kg/injection, schedule: Q01DX Z (ip), vehicle: methylcellulose (MC))?
The T/C was 102 % of control.

What about the T/C (dose: 1.0 mg/kg/injection, schedule: Q04DX009 (ip), vehicle: Klucel (hydroxypropylcellulose) (HPC)) of the same compound?
The T/C was 96 % of control.

What about the T/C (dose: 1.08 mg/kg/injection, schedule: Q01DX009 (ip), vehicle: saline) of the same compound?
The T/C was 117 % of control.

What about the T/C (dose: 1.5 mg/kg/injection, schedule: Q01DX Z (ip), vehicle: methylcellulose (MC)) of the same compound?
Its T/C is 106 % of control.

What about the T/C (dose: 1.8 mg/kg/injection, schedule: Q01DX009 (ip), vehicle: saline) of the same compound?
Its T/C is 107 % of control.

And the T/C (dose: 2.0 mg/kg/injection, schedule: Q04DX009 (ip), vehicle: Klucel (hydroxypropylcellulose) (HPC))?
The T/C was 120 % of control.

What about the T/C (dose: 2.3 mg/kg/injection, schedule: Q01DX Z (ip), vehicle: methylcellulose (MC)) of the same compound?
Its T/C is 112 % of control.

What about the T/C (dose: 3.0 mg/kg/injection, schedule: Q01DX009 (ip), vehicle: saline) of the same compound?
The T/C was 114 % of control.

And the T/C (dose: 3.0 mg/kg/injection, schedule: Q01DX010 (sc), vehicle: other)?
The T/C was 152 % of control.

And the T/C (dose: 4.0 mg/kg/injection, schedule: Q01DX010 (sc), vehicle: other)?
Its T/C is 152 % of control.

And the T/C (dose: 4.0 mg/kg/injection, schedule: Q01DX Z (ip), vehicle: methylcellulose (MC))?
Its T/C is 118 % of control.

And the T/C (dose: 5.0 mg/kg/injection, schedule: Q01DX009 (ip), vehicle: saline)?
Its T/C is 122 % of control.

And the T/C (dose: 6.0 mg/kg/injection, schedule: Q01DX Z (ip), vehicle: methylcellulose (MC))?
The T/C was 123 % of control.

And the T/C (dose: 8.0 mg/kg/injection, schedule: Q01DX009 (ip), vehicle: saline with Tween-80)?
Its T/C is 102 % of control.

What about the T/C (dose: 8.0 mg/kg/injection, schedule: Q04DX009 (ip), vehicle: Klucel (hydroxypropylcellulose) (HPC)) of the same compound?
The T/C was 115 % of control.

What about the T/C (dose: 8.4 mg/kg/injection, schedule: Q04DX003 (ip), vehicle: saline) of the same compound?
The T/C was 102 % of control.

And the T/C (dose: 12.5 mg/kg/injection, schedule: Q04DX003 (ip), vehicle: saline)?
Its T/C is 95 % of control.

What about the T/C (dose: 14.0 mg/kg/injection, schedule: Q04DX003 (ip), vehicle: saline) of the same compound?
The T/C was 115 % of control.

What about the T/C (dose: 16.0 mg/kg/injection, schedule: Q01DX009 (ip), vehicle: saline with Tween-80) of the same compound?
Its T/C is 90 % of control.

And the T/C (dose: 16.0 mg/kg/injection, schedule: Q04DX009 (ip), vehicle: Klucel (hydroxypropylcellulose) (HPC))?
Its T/C is 110 % of control.

And the T/C (dose: 23.0 mg/kg/injection, schedule: Q04DX003 (ip), vehicle: saline)?
The T/C was 105 % of control.

What about the T/C (dose: 25.0 mg/kg/injection, schedule: Q01DX001 (ip), vehicle: saline) of the same compound?
Its T/C is 98 % of control.

And the T/C (dose: 25.0 mg/kg/injection, schedule: Q04DX003 (ip), vehicle: saline)?
The T/C was 122 % of control.

And the T/C (dose: 39.0 mg/kg/injection, schedule: Q04DX003 (ip), vehicle: saline)?
The T/C was 119 % of control.

And the T/C [6]?
Its T/C is 112 % of control.

What about the T/C (dose: 65.0 mg/kg/injection, schedule: Q04DX003 (ip), vehicle: saline) of the same compound?
The T/C was 115 % of control.

What about the T/C [5] of the same compound?
Its T/C is 88 % of control.

How did the T/C [10] turn out when `CSc1ccccc1C(O)Cc1ccc([N+](=O)[O-])cc1` (stereo not given) was run?
The T/C was 105 % of control.

And the T/C (dose: 100.0 mg/kg/injection, schedule: Q04DX003 (ip), vehicle: saline)?
Its T/C is 98 % of control.

And the T/C [11]?
The T/C was 93 % of control.

And the T/C (dose: 200.0 mg/kg/injection, schedule: Q04DX003 (ip), vehicle: saline)?
The T/C was 98 % of control.

And the T/C [12]?
Its T/C is 96 % of control.

And the T/C (dose: 400.0 mg/kg/injection, schedule: Q04DX003 (ip), vehicle: saline)?
The T/C was 95 % of control.

How did the T/C (dose: 50.0 mg/kg/injection, schedule: Q01DX007 (ip), vehicle: saline with Tween-80) turn out when `Cc1ccc(S(=O)(=O)OCC2CO2)c(C)c1` (stereo not given) was run?
The T/C was 106 % of control.

What about the T/C (dose: 100.0 mg/kg/injection, schedule: Q01DX007 (ip), vehicle: saline with Tween-80) of the same compound?
The T/C was 103 % of control.

What about the T/C (dose: 200.0 mg/kg/injection, schedule: Q01DX007 (ip), vehicle: saline with Tween-80) of the same compound?
The T/C was 94 % of control.
